Source: patent publication US20250163104A1, “MACROCYCLIC IMMUNOMODULATORS” (priority 2021, published 2025)
Where a SMILES comes first, the peptide text is derived from it. Bridges are numbered along the chain shown (N, C = ends). [ ]: non-standard residue; d: D form. The star is where a group is joined. ξ: configuration not given here. Ala(1H-tetrazol-5-yl) = N[C@@H](Cc1nnn[nH]1)C(=O)O; Phe(4-COOH) = N[C@@H](Cc1ccc(C(=O)O)cc1)C(=O)O; Bip = N[C@@H](Cc1ccc(-c2ccccc2)cc1)C(=O)O; Phe(3-Me) = Cc1cccc(C[C@H](N)C(=O)O)c1; Aha = [N-]=[N+]=NCC[C@H](N)C(=O)O; 4Pal = N[C@@H](Cc1ccncc1)C(=O)O; 3Thi = N[C@@H](Cc1ccsc1)C(=O)O; Cha = N[C@@H](CC1CCCCC1)C(=O)O; Cit = NC(=O)NCCC[C@H](N)C(=O)O; Carboxymethyl = O=C(O)C*; Orn = NCCC[C@H](N)C(=O)O; Pra = C#CC[C@H](N)C(=O)O; Dab = NCC[C@H](N)C(=O)O; Abu = CC[C@H](N)C(=O)O; Dap = NC[C@H](N)C(=O)O; ξPra = C#CCC(N)C(=O)O

What follows are molecules tested against T1, human PD-1 / PD-L1-Ig binding on Jurkat cell line over-expressing human PD-1 (Jurkat-PD-1) (Homo sapiens, UniProt Q15116) (assay: Jurkat-PD-1 Cell Binding High-Content Screening Assay (CBA)). Details: Jurkat-PD-1 cells, PE-labeled PD-L1-Ig 20 nM final; read-out: Jurkat HPD1_PDL1 IC50.
T1 construct: expressed in transfected cells; host or cells: Jurkat
T1 sequence (Q15116 25-288): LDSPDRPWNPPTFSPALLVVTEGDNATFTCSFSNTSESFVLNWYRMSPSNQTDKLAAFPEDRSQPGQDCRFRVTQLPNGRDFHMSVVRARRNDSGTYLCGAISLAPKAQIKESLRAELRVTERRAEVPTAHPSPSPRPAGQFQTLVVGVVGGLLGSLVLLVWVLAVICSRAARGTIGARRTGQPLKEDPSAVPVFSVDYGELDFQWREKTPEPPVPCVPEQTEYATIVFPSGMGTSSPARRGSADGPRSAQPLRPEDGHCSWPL
Format: cell-based
Method in brief: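 Cell-bound PE-labeled PD-L1-Ig (20 nM final, 1 h) measured by high-content imaging after fixation and Hoechst 33342 counterstain. Compound was applied first for 2 h at 37° C. to Jurkat cells over-expressing human PD-1 in DMEM with 10% FCS.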
`CC(C)C[C@@H]1NC(=O)[C@H](Cc2c[nH]c3ccccc23)NC(=O)[C@H](CC(=O)O)NC(=O)[C@H](Cc2ccc(C(=O)O)cc2)NC(=O)[C@H](Cc2ccc(OCC(=O)O)cc2)NC(=O)CSC[C@@H](C(=O)NCC(N)=O)NC(=O)[C@H](CO)NC(=O)[C@H](C(C)C)NC(=O)[C@H](CC2CCCCC2)NC(=O)[C@H](CC(N)=O)NC(=O)[C@@H](CC(C)C)NC(=O)[C@H](CCCN)NC(=O)[C@H](C(C)C)NC(=O)[C@H](Cc2ccc(-c3ccccc3)cc2)NC1=O` [Compound 1335] ({CH2CO}-Y(Carboxymethyl)[Phe(4-COOH)]DWL[Bip]V[Orn][dL]N[Cha]VSCG-NH2; thioether N-14) showed an IC50 of 20.9 nM.
With `CC(C)C[C@H]1NC(=O)[C@H](CCN)NC(=O)[C@H](C(C)C)NC(=O)[C@H](Cc2ccc(-c3ccccc3)cc2)NC(=O)[C@H](C(C)C)NC(=O)[C@H](Cc2c[nH]c3ccccc23)NC(=O)[C@H](CC(=O)O)NC(=O)[C@H](Cc2ccc(OCC(=O)O)cc2)NC(=O)[C@H](Cc2ccsc2)NC(=O)CSC[C@@H](C(N)=O)NC(=O)[C@H](CCCCN)NC(=O)[C@H](C(C)C)NC(=O)[C@H](CC2CCCCC2)NC(=O)[C@H](CCN)NC1=O` [Compound 2614] ({CH2CO}-[3Thi]Y(Carboxymethyl)DWV[Bip]V[Dab][dL][Dab][Cha]VKC-NH2; thioether N-14) the IC50 was 7 nM.
For `C#CCC(NC(=O)[C@H](CCCNC(=N)N)NC(=O)[C@@H]1CSCC(=O)N[C@@H](Cc2ccncc2)C(=O)N[C@@H](Cc2ccc(OCC(=O)O)cc2)C(=O)N[C@@H](CC(=O)O)C(=O)N[C@@H](Cc2c[nH]c3ccccc23)C(=O)N[C@@H](C(C)C)C(=O)N[C@@H](Cc2ccc(-c3ccccc3)cc2)C(=O)N[C@@H]([C@@H](C)CC)C(=O)N[C@@H](CCCN)C(=O)N[C@H](CC(C)C)C(=O)N[C@@H](CCN)C(=O)N[C@@H](CC(C)C)C(=O)N[C@@H](C(C)C)C(=O)N[C@@H]([C@@H](C)O)C(=O)N1)C(N)=O` (stereo partly drawn) [Compound 1762] ({CH2CO}-[4Pal]Y(Carboxymethyl)DWV[Bip]I[Orn][dL][Dab]LVTCR[ξPra]-NH2; thioether N-14), the IC50 was 20.5 nM.
Molecule `CC[C@H](C)[C@@H]1NC(=O)[C@H](Cc2ccc(-c3ccccc3)cc2)NC(=O)[C@H](C(C)C)NC(=O)[C@H](Cc2c[nH]c3ccccc23)NC(=O)[C@H](CC(=O)O)NC(=O)[C@H](Cc2ccc(C(=O)O)cc2)NC(=O)[C@H](Cc2ccc(OCC(=O)O)cc2)NC(=O)CSC[C@@H](C(=O)N[C@@H](C)C(N)=O)NC(=O)[C@H]([C@@H](C)O)NC(=O)[C@H](C(C)C)NC(=O)[C@H](Cc2cccc(F)c2)NC(=O)[C@H](CCN)NC(=O)[C@@H](CC(C)C)NC(=O)[C@H](CCCN)NC1=O` [Compound 1670] has an IC50 of 13.9 nM.
`Cc1cccc(C[C@@H]2NC(=O)[C@H](CC(=O)O)NC(=O)[C@H](Cc3ccc(C(=O)O)cc3)NC(=O)[C@H](Cc3ccncc3)NC(=O)CSC[C@@H](C(=O)N[C@H](CC(N)=O)C(N)=O)NC(=O)[C@H](CCC(=O)O)NC(=O)[C@H](C(C)C)NC(=O)[C@H](CC3CCCCC3)NC(=O)[C@H](CCN)NC(=O)[C@@H](CC(C)C)NC(=O)[C@H](CCCN)NC(=O)[C@H](Cc3ccc(OCC(=O)O)cc3)NC(=O)[C@H](Cc3ccc(-c4ccccc4)cc3)NC(=O)[C@H](Cc3ccc(OCC(=O)O)cc3)NC2=O)c1` [Compound 2314] ({CH2CO}-[4Pal][Phe(4-COOH)]D[Phe(3-Me)]Y(Carboxymethyl)[Bip]Y(Carboxymethyl)[Orn][dL][Dab][Cha]VEC[dN]-NH2; thioether N-14) showed an IC50 of 45.8 nM.
`CC(C)C[C@H]1NC(=O)[C@H](CCCN)NC(=O)[C@H](CCCNC(N)=O)NC(=O)[C@H](Cc2ccc(-c3ccccc3)cc2)NC(=O)[C@H](C(C)C)NC(=O)[C@H](Cc2c[nH]c3ccccc23)NC(=O)[C@H](Cc2nn[nH]n2)NC(=O)[C@H](Cc2ccc(OCC(=O)O)cc2)NC(=O)[C@H](CN)NC(=O)CSC[C@@H](C(=O)N[C@@H](C)C(N)=O)NC(=O)[C@H]([C@@H](C)O)NC(=O)[C@H](C(C)C)NC(=O)[C@H](CC2CCCCC2)NC(=O)[C@H](CCN)NC1=O` [Compound 1328] ({CH2CO}-[Dap]Y(Carboxymethyl)[Ala(1H-tetrazol-5-yl)]WV[Bip][Cit][Orn][dL][Dab][Cha]VTCA-NH2; thioether N-14) showed an IC50 of 34.5 nM.
Molecule `CC[C@H](NC(=O)[C@@H]1CSCC(=O)N[C@@H](Cc2cnc[nH]2)C(=O)N[C@@H](Cc2ccc(OCC(=O)O)cc2)C(=O)N[C@@H](CC(=O)O)C(=O)N[C@@H](Cc2c[nH]c3ccccc23)C(=O)N[C@@H](C(C)C)C(=O)N[C@@H](Cc2ccc(-c3ccccc3)cc2)C(=O)N[C@@H](C(C)C)C(=O)N[C@@H](CCCN)C(=O)N[C@H](CC(C)C)C(=O)N[C@@H](CCN)C(=O)N[C@@H](CC2CCCCC2)C(=O)N[C@@H](C(C)C)C(=O)N[C@@H](CO)C(=O)N1)C(N)=O` [Compound 2564] ({CH2CO}-HY(Carboxymethyl)DWV[Bip]V[Orn][dL][Dab][Cha]VSC[Abu]-NH2; thioether N-14) has an IC50 of 18.8 nM.
For `C#CC[C@H](NC(=O)[C@@H]1CSCC(=O)N[C@@H](CN)C(=O)N[C@@H](CCN=[N+]=[N-])C(=O)N[C@@H](CC(=O)O)C(=O)N[C@@H](Cc2c[nH]c3ccccc23)C(=O)N[C@@H](C(C)C)C(=O)N[C@@H](Cc2ccc(-c3ccccc3)cc2)C(=O)N[C@@H](CCC(=O)O)C(=O)N[C@@H](CCCN)C(=O)N[C@H](CC(C)C)C(=O)N[C@@H](CCN)C(=O)N[C@@H](CC2CCCCC2)C(=O)N[C@@H](C(C)C)C(=O)N[C@@H]([C@@H](C)O)C(=O)N1)C(N)=O` [Compound 1540] ({CH2CO}-[Dap][Aha]DWV[Bip]E[Orn][dL][Dab][Cha]VTC[Pra]-NH2; thioether N-14), the IC50 was 87.4 nM.
With `Cc1cccc(C[C@@H]2NC(=O)[C@H](CC(=O)O)NC(=O)[C@H](Cc3ccc(C(=O)O)cc3)NC(=O)[C@H](Cc3ccncc3)NC(=O)CSC[C@@H](C(=O)N[C@@H](CCN)C(N)=O)NC(=O)[C@H](CCC(N)=O)NC(=O)[C@H](C(C)C)NC(=O)[C@H](CC3CCCCC3)NC(=O)[C@H](CCN)NC(=O)[C@@H](CC(C)C)NC(=O)[C@H](CCCN)NC(=O)[C@H](Cc3ccc(OCC(=O)O)cc3)NC(=O)[C@H](Cc3ccc(-c4ccccc4)cc3)NC(=O)[C@H](Cc3ccc(OCC(=O)O)cc3)NC2=O)c1` [Compound 2309] ({CH2CO}-[4Pal][Phe(4-COOH)]D[Phe(3-Me)]Y(Carboxymethyl)[Bip]Y(Carboxymethyl)[Orn][dL][Dab][Cha]VQC[Dab]-NH2; thioether N-14) the IC50 was 5.9 nM.
In the case of `CCCC[C@@H]1NC(=O)[C@H](CCN)NC(=O)[C@@H](CC(C)C)NC(=O)[C@H](CCCN)NC(=O)[C@H]([C@@H](C)CC)NC(=O)[C@H](Cc2ccc(-c3ccccc3)cc2)NC(=O)[C@H](C(C)C)NC(=O)[C@H](Cc2cccc(C)c2)NC(=O)[C@H](CC(=O)O)NC(=O)[C@H](Cc2ccc(OCC(=O)O)cc2)NC(=O)[C@H](CN)NC(=O)CSC[C@@H](C(=O)N[C@@H](C)C(N)=O)NC(=O)[C@H]([C@@H](C)O)NC(=O)[C@H](C(C)C)NC1=O` [Compound 1209], the IC50 is reported as 9.9 nM.
`COC[C@@H]1NC(=O)[C@H](Cc2c[nH]c3ccccc23)NC(=O)[C@H](CC(=O)O)NC(=O)[C@H](Cc2ccc(OCC(=O)O)cc2)NC(=O)[C@H](CN)NC(=O)CSC[C@@H](C(=O)N[C@@H](C)C(N)=O)NC(=O)[C@H]([C@@H](C)O)NC(=O)[C@H](C(C)C)NC(=O)[C@H](CC2CCCCC2)NC(=O)[C@H](CCN)NC(=O)[C@@H](CC(C)C)NC(=O)[C@H](CCCN)NC(=O)[C@H](CCCNC(N)=O)NC(=O)[C@H](Cc2ccc(-c3ccccc3)cc2)NC1=O` [Compound 1002] ({CH2CO}-[Dap]Y(Carboxymethyl)DWS(Me)[Bip][Cit][Orn][dL][Dab][Cha]VTCA-NH2; thioether N-14) was tested, and the IC50 was 17.2 nM.
Work on `CC(C)C[C@@H]1NC(=O)[C@H](Cc2c[nH]c3ccccc23)NC(=O)[C@H](CC(=O)O)NC(=O)[C@H](Cc2ccc(O)cc2)NC(=O)[C@H](Cc2ccccc2)NC(=O)CSC[C@@H](C(=O)N[C@@H](C)C(N)=O)NC(=O)[C@H](CO)NC(=O)[C@H](C(C)C)NC(=O)[C@H](CC(C)C)NC(=O)[C@H](CCN)NC(=O)[C@@H](CC(C)C)NC(=O)[C@H](CCN)NC(=O)[C@H](C(C)C)NC(=O)[C@H](Cc2ccc(-c3ccccc3)cc2)NC1=O` [Compound 1061] ({CH2CO}-FYDWL[Bip]V[Dab][dL][Dab]LVSCA-NH2; thioether N-14) yielded an IC50 of 8.8 nM.
`CC[C@H](C)[C@@H]1NC(=O)[C@H](Cc2ccc(-c3ccccc3)cc2)NC(=O)[C@H](C(C)C)NC(=O)[C@H](Cc2cccc(C)c2)NC(=O)[C@H](CC(=O)O)NC(=O)[C@H](Cc2ccc(N=[N+]=[N-])cc2)NC(=O)[C@H](Cc2ccncc2)NC(=O)CSC[C@@H](C(=O)N[C@@H](C)C(N)=O)NC(=O)[C@H]([C@@H](C)O)NC(=O)[C@H](C(C)C)NC(=O)[C@H](CC2CCCCC2)NC(=O)[C@H](CCN)NC(=O)[C@@H](CC(C)C)NC(=O)[C@H](CCCN)NC1=O` [Compound 2240] gave an IC50 of 259 nM.
`CC[C@H](C)[C@@H]1NC(=O)[C@H](Cc2ccc(-c3ccccc3)cc2)NC(=O)[C@H](C(C)C)NC(=O)[C@H](Cc2cccc(C)c2)NC(=O)[C@H](CC(=O)O)NC(=O)[C@H](Cc2ccncc2)NC(=O)[C@H](CN)NC(=O)CSC[C@@H](C(N)=O)NC(=O)[C@H]([C@@H](C)O)NC(=O)[C@H](C(C)C)NC(=O)[C@H](CC(C)C)NC(=O)[C@H](CCN)NC(=O)[C@@H](CC(C)C)NC(=O)[C@H](CCCN)NC1=O` [Compound 1554] ({CH2CO}-[Dap][4Pal]D[Phe(3-Me)]V[Bip]I[Orn][dL][Dab]LVTC-NH2; thioether N-14) gave an IC50 of 96.2 nM.
`CCC(C)[C@@H]1NC(=O)[C@H](Cc2ccc(-c3ccccc3)cc2)NC(=O)[C@H](C(C)C)NC(=O)[C@H](Cc2c[nH]c3ccccc23)NC(=O)[C@H](CC(=O)O)NC(=O)[C@H](Cc2ccc(OCC(=O)O)cc2)NC(=O)[C@H](CN)NC(=O)CSC[C@@H](C(=O)N[C@@H](C)C(N)=O)NC(=O)[C@H](C(C)O)NC(=O)[C@H](C(C)C)NC(=O)[C@H](CC2CCCCC2)NC(=O)[C@H](CCN)NC(=O)[C@@H](CC(C)C)NC(=O)[C@H](CCCN)NC1=O` (stereo partly drawn) [Compound 2520] was tested, and the IC50 was 10.5 nM.
